Data published in patent publication US11246818B2, “Peptides and compositions for use in cosmetics” (LIPOTRUE, S.L., priority 2017, dated 2022).
Residues, ends and D or L forms follow the SMILES beside them.

Experiments:
HO-1 = HO-1 immunostaining on human skin explants
Experimental: (§1) The protection efficacy of peptide Ac-SEQ ID NO: 1-NH2 against pollution aggression on human living explants was assessed by observation of the general morphology, immunostaining of AhR and HO-1 (both are known markers of oxidative stress as they have been related to anti-oxidative response) (Esser C., Bargen I., Weighardt H., Haarmann-Stemmann T., Krutmann J., Functions of the aryl hydrocarbon receptor in the skin, Semin Immunopathol (2013) 35:677-691; Kohen R., Nyska A., Oxidation of Biological Systems: Oxidative Stress Phenomena, Antioxidants, Redox Reactions, and Methods for Their Quantification, Toxicologic Pathology (2002) vol 30, no 6, 620-650).
(§2) Briefly, human skin explants from a person were put in culture under controlled conditions. 21 skin explants of an average diameter of 11 mm (±1 mm) were prepared and kept in survival in BEM culture medium at 37° C. in a humid, 5% CO2 atmosphere. The explants were distributed in 5 batches: explant control (Time=0), control batch, explants treated with the above-mentioned peptide, explants treated with pollutant and explants treated with pollutant and with the above-mentioned peptide. A composition containing Ac-SEQ ID NO: 1-NH2 in accordance with Example 8 was prepared and it was topically applied on days 0, 1, 3 and 4. […] Finally, image analyses and quantification were performed using Cell^D software (Olympus, Tokyo, Japan).

HEKa cells = assay: Modulation of the expression of antioxidant genes (RTqPCR); assay type: cell-based, human; conditions: 0.05 mg/mL, 24 hours
Text: Changes in gene expression levels are represented as a positive or negative fold-change with regard to the basal control (untreated cells). Bars from top to bottom in the y-axis refer to: CYP2R1 (Vitamin D 25-hydroxylase), NFE2L2 (Nuclear factor-like 2), HMOX1 (Heme oxygenase-1), GSTP1 (Glutathione S-transferase P), GSS (Glutathione synthetase), GPX1 (Glutathione peroxidase) and TRX (Thioredoxin). The x-axis refers to fold change versus or with regard to the basal control.
Briefly, HEKa cells were seeded in duplicate in 6-well plates at a density of 4×10^5 cells/well and maintained at standard culture conditions (37° C., 95% humidity, 5% CO2) for 24 hours. Then, cells were treated with non-cytotoxic concentrations of Ac-SEQ ID NO: 1-NH2 (0.05 mg/mL) for an additional 24 hours.
Untreated cells were used as basal control. Cells were then lysed for RNA extraction with a RNA purification commercial kit following manufacturer instructions (RNeasy mini kit; Qiagen; Netherlands). RNA was then quantified by nanodrop, adjusted in concentration and processed for retrotranscription to cDNA using a commercially available kit (High-Capacity cDNA Reverse Transcription kit; Thermofisher Scientific, USA). Resulting cDNA was used to perform a RTqPCR (Real Time Quantitative Polymerase Chain Reaction) using Taqman technology and a panel of probes designed to target specific genes related to melanogenesis and HEMn-HEKa and HEMn-HDFa communication.

AhR = AhR immunostaining on human skin explants exposed to pollutants; conditions: composition of Example 8 applied topically, versus pollutants without peptide
Experimental: as §1, §2

[1] = Trolox Equivalent Antioxidant Capacity (TEAC), ABTS Decolorization Assay; assay type: biochemical
Experimental: As positive controls of the assay, ascorbic acid 2-glucoside (hereinafter, AA-2G) and magnesium ascorbyl phosphate (hereinafter, MAP) were tested.
TEAC assay was used in this case. Said assay measures the antioxidant capacity of a given substance, as compared to the standard, Trolox, an analogue of Vitamin E.
Antioxidant capacity was measured using the ABTS Decolorization Assay. In this assay, the pre-formed radical monocation of 2,2′-azinobis-(3-ethylbenzothiazoline-6-sulfonic acid) (ABTS*+) was generated by oxidation of ABTS with potassium persulfate and was reduced in the presence of antioxidants (Ac-SEQ ID NO: 1-NH2, Ac-SEQ ID NO: 2-NH2, Ac-SEQ ID NO: 3-NH2 or Ferulic acid-SEQ ID NO: 2-NH2). The ABTS.+ has a blue-green color, with maximum absorptions at 650, 734 and 820 nm. Antioxidants in the sample reduce ABTS.+ suppressing this color production to a degree that is proportional to their concentrations and antioxidant capacity. Quantification of absorbance was conducted at 734 nm using a Polarstar Omega equipment (BMG Labtech).

[2] = system: Primary human epidermal melanocytes; assay: Brightening activity: intracellular melanin content; assay type: cell-based; conditions: 7 days, kojic acid 10 and 50 μM
Experimental: Two concentrations of kojic acid were used as positive control.
Kojic acid was used as positive control.
Primary human epidermal melanocytes were incubated in 6-well plates for 4 days and then treated with the compounds to be analysed (Ac-SEQ ID NO: 1-NH2, Ac-SEQ ID NO: 2-NH2, Ac-SEQ ID NO: 3-NH2 or Ferulic acid-SEQ ID NO: 2-NH2) for 7 days. After treatment, cells were homogenized an intracellular melanin content was quantified by absorbance at 450 nm by Multiskan FC (Thermo Fisher Scientific, MA, USA).

[3] = system: Primary human epidermal keratinocytes; assay: Protection against lipoxidation induced by synthetic smoke (intracellular MDA); assay type: cell-based; conditions: synthetic smoke 48 h
Experimental: Primary human epidermal keratinocytes were seeded in 96-well plates in standard culture medium and, 24 hours later, subjected to a simultaneous treatment with synthetic smoke containing selected compounds from the particle phase (for example, cadmium and nicotine) and vapour phase (for example, formaldehyde (hereinafter, FA) and ethyl carbamate) of tobacco smoke and the analysed compound (Ac-SEQ ID NO: 1-NH2) for 48 h.
In addition, after treatment, lipoxidation was analysed by means of the levels of intracellular MDA, which were measured by the reaction between MDA and N-methyl-2-phenylindole (hereinafter, NMPI) rendering a stable blue chromophore with an absorption peak at 586 nm.

CC(=O)N[C@@H](CC(=O)O)C(=O)N[C@@H](Cc1ccc(O)cc1)C(=O)N[C@@H](CCCCN)C(=O)N[C@H](C(N)=O)C(C)C [Ac-SEQ ID NO: 1-NH2, Ac-Asp-Tyr-Lys-Val-NH2] (Ac-DYKV-NH2)
decrease in HO-1 (epidermal surface occupied) (HO-1; composition of Example 8 applied topically, exposed to pollutants, versus pollutants without peptide): 23% | increase of levels of HO-1 (HO-1; peptide in a final formulation, without exposure to pollutants, versus untreated and unexposed explants): 69% | CYP2R1 gene expression, fold change versus basal control (HEKa cells): 1.44 fold change | GPX1 gene expression, fold change versus basal control (HEKa cells): 1.22 fold change | GSS gene expression, fold change versus basal control (HEKa cells): 1.10 fold change | GSTP1 gene expression, fold change versus basal control (HEKa cells): 1.13 fold change | HMOX1 gene expression, fold change versus basal control (HEKa cells): 1.48 fold change | NFE2L2 gene expression, fold change versus basal control (HEKa cells): 1.23 fold change | TRX gene expression, fold change versus basal control (HEKa cells): 1.34 fold change | decrease in AhR (epidermal surface occupied) (AhR): 16% | trolox equivalents ([1]; 0.01 mg/mL): 15 µM | trolox equivalents ([1]; 0.05 mg/mL): 24 µM | trolox equivalents ([1]; 0.1 mg/mL): 94 µM | brightening or whitening activity compared with kojic acid ([2]; all the concentrations tested (0.01, 0.05, 0.1 mg/ml)): significantly higher brightening or whitening activity | increased brightening activity relative to the activity of the two concentrations of kojic acid ([2]; all the concentrations tested): two to more than four times | lipoxidation (MDA) ([3]; lower tested concentration (0.01 mg/ml)): slight decrease (non-statistically significant) | lipoxidation (MDA) ([3]; other two tested concentrations (0.05, 0.1 mg/ml)): higher, statistically significant, effect
